Experiments:
Experiment in all cases: relative viability (nuclei count vs DMSO), 5 days (fraction); higher = more cells survive
Etoposide + Decitabine = compound: COc1cc([C@@H]2c3cc4c(cc3[C@@H](O[C@@H]3O[C@@H]5CO[C@@H](C)O[C@H]5[C@H](O)[C@H]3O)[C@H]3COC(=O)[C@H]23)OCO4)cc(OC)c1O [Etoposide] + Nc1ncn([C@H]2C[C@H](O)[C@@H](CO)O2)c(=O)n1 [Decitabine] (partner 2 µM)
Outline: (§1)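 Relative viability is defined as nuclei in treated wells over nuclei in vehicle wells. Duplicate plates were run and medians reported. Lung cancer cell lines in 1536-well plates were dosed by pin tool one day after seeding, with one drug or with a fixed anchor-drug dose plus five library-drug doses (not always all listed) in √10 steps, and nuclei were counted after 5 days.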

Bleomycin + Vorinostat = compound: CC1=C(N=C(N=C1N)[C@H](CC(=O)N)NC[C@@H](C(=O)N)N)C(=O)N[C@@H]([C@H](C2=CN=CN2)OC3C(C(C(C(O3)CO)O)O)OC4C(C(C(C(O4)CO)O)OC(=O)N)O)C(=O)N[C@H](C)[C@H]([C@H](C)C(=O)N[C@@H]([C@@H](C)O)C(=O)NCCC5=NC(=CS5)C6=NC(=CS6)C(=O)NCCC[S+](C)C)O [Bleomycin] + O=C(CCCCCCC(=O)Nc1ccccc1)NO [Vorinostat] (partner 1 µM); conditions: main component drawn
Outline: as §1

Etoposide + Vorinostat = compound: COc1cc([C@@H]2c3cc4c(cc3[C@@H](O[C@@H]3O[C@@H]5CO[C@@H](C)O[C@H]5[C@H](O)[C@H]3O)[C@H]3COC(=O)[C@H]23)OCO4)cc(OC)c1O [Etoposide] + O=C(CCCCCCC(=O)Nc1ccccc1)NO [Vorinostat] (partner 1 µM)
Outline: as §1

Etoposide + Dasatinib = compound: COc1cc([C@@H]2c3cc4c(cc3[C@@H](O[C@@H]3O[C@@H]5CO[C@@H](C)O[C@H]5[C@H](O)[C@H]3O)[C@H]3COC(=O)[C@H]23)OCO4)cc(OC)c1O [Etoposide] + Cc1nc(Nc2ncc(C(=O)Nc3c(C)cccc3Cl)s2)cc(N2CCN(CCO)CC2)n1 [Dasatinib] (partner 0.075 µM)
Outline: as §1

Cell Line | relative viability (Etoposide + Decitabine; first compound 0.01 µM) | relative viability (Etoposide + Decitabine; first compound 0.03162 µM) | relative viability (Etoposide + Decitabine; first compound 0.1 µM) | relative viability (Etoposide + Decitabine; first compound 0.3162 µM) | relative viability (Etoposide + Decitabine; first compound 1 µM) | relative viability (Bleomycin + Vorinostat; first compound 0.01 µM) | relative viability (Bleomycin + Vorinostat; first compound 0.03162 µM) | relative viability (Bleomycin + Vorinostat; first compound 0.1 µM) | relative viability (Bleomycin + Vorinostat; first compound 0.3162 µM) | relative viability (Bleomycin + Vorinostat; first compound 1 µM) | relative viability (Etoposide + Vorinostat; first compound 0.01 µM) | relative viability (Etoposide + Vorinostat; first compound 0.03162 µM) | relative viability (Etoposide + Vorinostat; first compound 0.1 µM) | relative viability (Etoposide + Vorinostat; first compound 0.3162 µM) | relative viability (Etoposide + Vorinostat; first compound 1 µM) | relative viability (Etoposide + Dasatinib; first compound 0.01 µM) | relative viability (Etoposide + Dasatinib; first compound 0.03162 µM) | relative viability (Etoposide + Dasatinib; first compound 0.1 µM) | relative viability (Etoposide + Dasatinib; first compound 0.3162 µM) | relative viability (Etoposide + Dasatinib; first compound 1 µM)
NCI-H2347 | 0.6 | 0.628 | 0.573 | 0.443 | 0.411 | 0.487 | 0.518 | 0.414 | 0.338 | 0.39 | 0.412 | 0.646 | 0.475 | 0.382 | 0.432 | 0.365 | 0.294 | 0.293 | 0.255 | 0.249
LCLC-97TM1 | 0.253 | 0.222 | 0.302 | 0.129 | 0.11 | 0.179 | 0.15 | 0.18 | 0.106 | 0.0733 | 0.783 | 0.896 | 0.315 | 0.316 | 0.0855 | 0.858 | 0.943 | 0.933 | 0.681 | 0.179
EPLC-272H | 0.339 | 0.412 | 0.338 | 0.328 | 0.297 | 0.296 | 0.323 | 0.223 | 0.12 | 0.0952 | 0.415 | 0.464 | 0.426 | 0.267 | 0.235 | 0.373 | 0.342 | 0.222 | 0.354 | 0.245
NCI-H522 | 0.702 | 0.655 | 0.502 | 0.872 | 0.571 | 0.979 | 0.911 | 0.739 | 0.525 | 0.374 | 0.934 | 0.981 | 0.774 | 0.841 | 0.834 | 0.861 | 0.883 | 0.805 | 0.895 | 0.874
NCI-H1915 | 0.267 | 0.261 | 0.256 | 0.26 | 0.245 | 0.377 | 0.383 | 0.291 | 0.162 | 0.116 | 0.511 | 0.616 | 0.426 | 0.477 | 0.418 | 0.31 | 0.413 | 0.236 | 0.326 | 0.286
NCI-H3122 | 0.465 | 0.536 | 0.384 | 0.385 | 0.249 | 1.15 | 0.882 | 0.823 | 0.517 | 0.334 | 1.04 | 1.11 | 0.598 | 0.66 | 0.224 | 0.749 | 0.775 | 0.112 | 0.817 | 0.223
NCI-H441 | 0.273 | 0.239 | 0.241 | 0.213 | 0.169 | 0.646 | 0.546 | 0.686 | 0.453 | 0.312 | 0.645 | 0.625 | 0.345 | 0.224 | 0.182 | 0.58 | 0.677 | 0.398 | 0.285 | 0.147
NCI-H2170 | 0.463 | 0.449 |  | 0.386 | 0.342 | 0.639 | 0.591 | 0.605 | 0.383 | 0.34 | 0.782 | 0.846 |  | 0.755 | 0.438 | 0.678 | 0.658 | 0.353 | 0.619 | 0.401
SW 900 | 0.443 | 0.428 | 0.361 | 0.297 | 0.269 | 0.403 | 0.513 | 0.427 | 0.207 | 0.217 | 0.413 | 0.468 | 0.408 | 0.295 | 0.167 | 0.62 | 0.659 | 0.395 | 0.591 | 0.147
NCI-H1395 | 0.726 | 0.755 | 0.681 | 0.667 | 0.653 | 0.574 | 0.656 | 0.403 | 0.35 | 0.359 | 0.659 | 0.905 | 0.509 | 0.54 | 0.502 | 0.422 | 0.414 | 0.368 | 0.406 | 0.438
NCI-H358 | 0.229 | 0.212 | 0.155 | 0.136 | 0.103 | 0.539 | 0.722 | 0.661 | 0.327 | 0.217 | 0.663 | 0.508 | 0.411 | 0.107 | 0.0977 | 0.166 | 0.179 | 0.112 | 0.149 | 0.106
PC-14 | 0.242 | 0.248 | 0.258 | 0.182 | 0.103 | 0.414 | 0.406 | 0.198 | 0.0393 | 0.0658 | 0.762 | 0.89 | 0.558 | 0.495 | 0.234 | 0.266 | 0.227 | 0.276 | 0.217 | 0.151

Reference: the supplement of paper PMC10307832
